{"source": "patent US20250114374A1", "about": "“BCL-2 INHIBITORS” (Newave Pharmaceutical Inc., priority 2021, published 2025)", "key": {"RS4; 11 cells": {"test_system": "RS4; 11 cells", "details": "cited from earlier work"}, "[1]": {"test_system": "DoHH2, Granta-519 xenografts", "details": "single agent or in combination with Bendamustine and other agents; cited from earlier work"}, "[2]": {"test_system": "RS4; 11 with G101V mutation", "assay": "In vitro anti-proliferation assay (ATPlite luminescence) in BCL-2-dependent ALL cell line RS4;11 with G101V mutation", "type": "cell-based", "details": "read-out: RS411-G101V IC50", "how_it_was_run": "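RS4;11 G101V cells at about 1×10^4 per well were exposed to a range of compound concentrations for about 72 h in medium with 10% FBS. Cellular ATP was measured by ATPlite luminescence after lysis, and IC50 was derived from the dose-response.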"}, "CLL": {"test_system": "CLL", "details": "read-out: average EC50, apoptosis; cited from earlier work"}, "[3]": {"test_system": "CLL who have 17p deletion", "details": "Human Phase I and II, CLL with 17p deletion; cited from earlier work"}, "Mcl-1": {"biological_target": "Mcl-1 (Homo sapiens, UniProt Q07820)", "sequence (Q07820 whole entry)": "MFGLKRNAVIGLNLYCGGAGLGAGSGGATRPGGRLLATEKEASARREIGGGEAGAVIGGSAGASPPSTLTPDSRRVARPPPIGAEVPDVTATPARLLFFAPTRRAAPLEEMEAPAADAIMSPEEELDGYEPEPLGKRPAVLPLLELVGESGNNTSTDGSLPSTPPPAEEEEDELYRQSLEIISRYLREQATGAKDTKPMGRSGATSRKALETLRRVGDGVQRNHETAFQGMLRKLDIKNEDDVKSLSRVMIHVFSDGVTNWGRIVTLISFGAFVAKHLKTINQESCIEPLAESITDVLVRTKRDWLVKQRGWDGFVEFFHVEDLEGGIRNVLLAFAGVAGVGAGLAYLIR", "details": "cited from earlier work"}, "RS4; 11 xenografts": {"test_system": "RS4; 11 xenografts", "details": "single dose of 100 mg/kg; cited from earlier work"}, "circulating platelets": {"test_system": "circulating platelets", "details": "cited from earlier work"}, "Bcl-w": {"biological_target": "T1, Bcl-w (Homo sapiens, UniProt Q92843)", "T1 sequence (Q92843 1-193)": "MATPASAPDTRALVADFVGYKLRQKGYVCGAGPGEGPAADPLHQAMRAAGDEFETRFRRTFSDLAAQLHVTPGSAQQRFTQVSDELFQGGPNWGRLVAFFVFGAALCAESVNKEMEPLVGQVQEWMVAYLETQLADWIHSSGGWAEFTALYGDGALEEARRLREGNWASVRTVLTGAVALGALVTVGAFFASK", "details": "cited from earlier work"}, "[4]": {"test_system": "xenograft models of small-cell lung cancer and acute lymphoblastic leukemia", "details": "oral administration, alone; cited from earlier work"}, "[5]": {"test_system": "cells from lymphoma and small-cell lung carcinoma lines, primary patient-derived cells", "details": "single agent; cited from earlier work"}, "[6]": {"details": "cited from earlier work"}, "[7]": {"details": "cellular anti-proliferative IC50, about 72 hours, medium with 10% FBS, ATPlite"}}, "note": "pEC50, pIC50, pKi: −log10 of the molar value. Read-outs that look alike come from different tables or passages of the source.", "data": [{"smiles": "CC1(C)CCC(CN2CCN(c3ccc(C(=O)NS(=O)(=O)c4ccc(NCC5CCOCC5)c([N+](=O)[O-])c4)c(Oc4cnc5[nH]ccc5c4)c3)CC2)=C(c2ccc(Cl)cc2)C1", "note": "[ABT-199]", "values": [{"measurement": "pEC50", "setting": "RS4; 11 cells; RS4, 11 cells", "result": 8.10}, {"measurement": "apoptosis in RS4; 11 cells", "setting": "RS4; 11 cells; cytochrome c release, caspase activation, accumulation of sub-G0/G1 DNA", "result": "rapid apoptosis"}, {"measurement": "xenograft growth", "setting": "[1]", "result": "inhibits xenograft growth"}, {"measurement": "pIC50", "setting": "[2]; Homo sapiens, RS4-11, 72 h", "result": 6.11}, {"measurement": "pEC50", "setting": "CLL", "result": 8.52}, {"measurement": "clinical efficacy", "setting": "[3]", "result": "highly efficacious"}, {"measurement": "activity to Mcl-1", "setting": "Mcl-1", "result": "no activity"}, {"measurement": "maximal tumor growth inhibition", "setting": "RS4; 11 xenografts", "result": 95, "unit": "%"}, {"measurement": "tumor growth delay", "setting": "RS4; 11 xenografts", "result": 152, "unit": "%"}]}, {"smiles": "CC1(C)CCC(c2ccc(Cl)cc2)=C(CN2CCN(c3ccc(C(=O)NS(=O)(=O)c4ccc(N[C@H](CCN5CCOCC5)CSc5ccccc5)c(S(=O)(=O)C(F)(F)F)c4)cc3)CC2)C1", "note": "[ABT-263]", "values": [{"measurement": "number of circulating platelets", "setting": "circulating platelets; clinical trial", "result": "rapid, concentration-dependent decrease"}, {"measurement": "dose-limiting toxicity", "setting": "circulating platelets; single-agent treatment in patients", "result": "thrombocytopenia"}, {"measurement": "pKi", "setting": "Bcl-w", "result": "≥ 9.00"}, {"measurement": "tumor regression", "setting": "[4]", "result": "complete tumor regressions"}]}, {"smiles": "CN(C)CC[C@H](CSc1ccccc1)Nc1ccc(S(=O)(=O)NC(=O)c2ccc(N3CCN(Cc4ccccc4-c4ccc(Cl)cc4)CC3)cc2)cc1[N+](=O)[O-]", "note": "[ABT-737]", "values": [{"measurement": "cell killing", "setting": "[5]", "result": "single-agent-mechanism-based killing"}, {"measurement": "aqueous solubility", "setting": "[6]", "result": "low"}]}, {"smiles": "CC(C)Oc1ccccc1[C@@H]1CN(Cc2ccc(C3CC3)nc2)CCN1C1CC2(CCN(c3ccc(C(=O)NS(=O)(=O)c4cc5c(c([N+](=O)[O-])c4)N[C@H](C4CCOCC4)CO5)c(N4c5cc6cc[nH]c6nc5O[C@H]5COCC[C@@H]54)c3)CC2)C1", "note": "[Example 257, 4-(2-((R)-4-((6-cyclopropylpyridin-3-yl)methyl)-2-(2-isopropoxyphenyl)piperazin-1-yl)-7-azaspiro[3.5]nonan-7-yl)-N-(((R)-5-nitro-3-(tetrahydro-2H-pyran-4-yl)-3,4-dihydro-2H-benzo[b][1,4]oxazin-7-yl)sulfonyl)-2-((5aS,9aR)-6,7,9,9a-tetrahydro-1H-pyrano[3,4-b]pyrrolo[3′,2′:5,6]pyrido[3,2-e][1,4]oxazin-5(5aH)-yl)benzamide]", "values": [{"measurement": "pIC50", "setting": "[2]; Homo sapiens, RS4-11, 72 h", "result": 8.41}]}, {"smiles": "COc1ccc(CN2CCN(C3CC4(CCN(c5ccc(C(=O)NS(=O)(=O)c6cc7c(c([N+](=O)[O-])c6)N[C@H](C6CCOCC6)CO7)c(N6c7cc8cc[nH]c8nc7O[C@H]7COCC[C@@H]76)c5)CC4)C3)[C@H](c3ccccc3OC(C)C)C2)cn1", "note": "[Example 258, 4-(2-((R)-2-(2-isopropoxyphenyl)-4-((6-methoxypyridin-3-yl)methyl)piperazin-1-yl)-7-azaspiro[3.5]nonan-7-yl)-N-(((R)-5-nitro-3-(tetrahydro-2H-pyran-4-yl)-3,4-dihydro-2H-benzo[b][1,4]oxazin-7-yl)sulfonyl)-2-((5aS,9aR)-6,7,9,9a-tetrahydro-1H-pyrano[3,4-b]pyrrolo[3′,2′:5,6]pyrido[3,2-e][1,4]oxazin-5(5aH)-yl)benzamide]", "values": [{"measurement": "pIC50", "setting": "[2]; Homo sapiens, RS4-11, 72 h", "result": 7.93}]}, {"smiles": "CNc1ccc(CN2CCN(C3CC4(CCN(c5ccc(C(=O)NS(=O)(=O)c6cc7c(c([N+](=O)[O-])c6)N[C@H](C6CCOCC6)CO7)c(N6c7cc8cc[nH]c8nc7O[C@H]7COCC[C@@H]76)c5)CC4)C3)[C@H](c3ccccc3OC(C)C)C2)cn1", "note": "[Example 259, 2-[(3R,8S)-2,5-dioxa-9,15,17-triazatetracyclo[8.7.0.0^{3,8}.0^{12,16}]heptadeca-1(10),11,13,16-tetraen-9-yl]-4-{2-[(2R)-2-(2-isopropoxyphenyl)-4-{[6-(methylamino)pyridin-3-yl]methyl}piperazin-1-yl]-7-azaspiro[3.5]nonan-7-yl}-N-[(3R)-5-nitro-3-(oxan-4-yl)-3,4-dihydro-2H-1,4-benzoxazin-7-ylsulfonyl]benzamide]", "values": [{"measurement": "pIC50", "setting": "[2]; [7]", "result": 8.01}]}, {"smiles": "CC(C)Oc1ccccc1[C@@H]1CN(Cc2ccc(N3CCOC[C@@H]3C)nc2)CCN1C1CC2(CCN(c3ccc(C(=O)NS(=O)(=O)c4cc5c(c([N+](=O)[O-])c4)N[C@H](C4CCOCC4)CO5)c(N4c5cc6cc[nH]c6nc5O[C@H]5COCC[C@@H]54)c3)CC2)C1", "note": "[Example 260, 2-[(3R,8S)-2,5-dioxa-9,15,17-triazatetracyclo[8.7.0.0^{3,8}.0^{12,16}]heptadeca-1(10),11,13,16-tetraen-9-yl]-4-{2-[(2R)-2-(2-isopropoxyphenyl)-4-({6-[(3S)-3-methylmorpholin-4-yl]pyridin-3-yl}methyl)piperazin-1-yl]-7-azaspiro[3.5]nonan-7-yl}-N-[(3R)-5-nitro-3-(oxan-4-yl)-3,4-dihydro-2H-1,4-benzoxazin-7-ylsulfonyl]benzamide]", "values": [{"measurement": "pIC50", "setting": "[2]; [7]", "result": 8.06}]}, {"smiles": "CC(C)Oc1ccccc1[C@@H]1CN(Cc2ccc(C(F)(F)F)nc2)CCN1C1CC2(CCN(c3ccc(C(=O)NS(=O)(=O)c4cc5c(c([N+](=O)[O-])c4)N[C@H](C4CCOCC4)CO5)c(N4c5cc6cc[nH]c6nc5O[C@H]5COCC[C@@H]54)c3)CC2)C1", "note": "[Example 261, 2-[(3R,8S)-2,5-dioxa-9,15,17-triazatetracyclo[8.7.0.0^{3,8}.0^{12,16}]heptadeca-1(10),11,13,16-tetraen-9-yl]-4-{2-[(2R)-2-(2-isopropoxyphenyl)-4-{[6-(trifluoromethyl)pyridin-3-yl]methyl}piperazin-1-yl]-7-azaspiro[3.5]nonan-7-yl}-N-[(3R)-5-nitro-3-(oxan-4-yl)-3,4-dihydro-2H-1,4-benzoxazin-7-ylsulfonyl]benzamide]", "values": [{"measurement": "pIC50", "setting": "[2]; [7]", "result": 8.41}]}, {"smiles": "CC(C)Oc1ccccc1[C@@H]1CN(Cc2ccc(C#N)nc2)CCN1C1CC2(CCN(c3ccc(C(=O)NS(=O)(=O)c4cc5c(c([N+](=O)[O-])c4)N[C@H](C4CCOCC4)CO5)c(N4c5cc6cc[nH]c6nc5O[C@H]5COCC[C@@H]54)c3)CC2)C1", "note": "[Example 262, 4-{2-[(2R)-4-[(6-cyanopyridin-3-yl)methyl]-2-(2-isopropoxyphenyl)piperazin-1-yl]-7-azaspiro[3.5]nonan-7-yl}-2-[(3R,8S)-2,5-dioxa-9,15,17-triazatetracyclo[8.7.0.0^{3,8}.0^{12,16}]heptadeca-1(10),11,13,16-tetraen-9-yl]-N-[(3R)-5-nitro-3-(oxan-4-yl)-3,4-dihydro-2H-1,4-benzoxazin-7-ylsulfonyl]benzamide]", "values": [{"measurement": "pIC50", "setting": "[2]; [7]", "result": 8.19}]}]}
